Reference: patent US20240000767A1, “COMBINATION OF AN ALPHA2-ADRENOCEPTOR SUBTYPE C (ALPHA-2C) ANTAGONIST WITH A TASK1/3 CHANNEL BLOCKER FOR THE TREATMENT OF SLEEP APNEA” (Bayer Aktiengesellschaft, priority 2020, published 2024)

What was measured:
[1] = biological target: T1, human ADRA2C receptor (Homo sapiens (Human), UniProt P18825); assay: In vitro radioligand binding studies ([3H] rauwolscine competition) at the human adrenoreceptor ADRA2C; settings: for IC50: 0.5 nM [3H] rauwolscine, homogenates of CHO-K1 cells expressing human ADRA2C, 1 h at 4° C., read-out: hARα2C IC50; for Ki: calculated from IC50 and Kd with the Cheng Prusoff equation, read-out: hARα2C Ki
T1 sequence (P18825 whole entry): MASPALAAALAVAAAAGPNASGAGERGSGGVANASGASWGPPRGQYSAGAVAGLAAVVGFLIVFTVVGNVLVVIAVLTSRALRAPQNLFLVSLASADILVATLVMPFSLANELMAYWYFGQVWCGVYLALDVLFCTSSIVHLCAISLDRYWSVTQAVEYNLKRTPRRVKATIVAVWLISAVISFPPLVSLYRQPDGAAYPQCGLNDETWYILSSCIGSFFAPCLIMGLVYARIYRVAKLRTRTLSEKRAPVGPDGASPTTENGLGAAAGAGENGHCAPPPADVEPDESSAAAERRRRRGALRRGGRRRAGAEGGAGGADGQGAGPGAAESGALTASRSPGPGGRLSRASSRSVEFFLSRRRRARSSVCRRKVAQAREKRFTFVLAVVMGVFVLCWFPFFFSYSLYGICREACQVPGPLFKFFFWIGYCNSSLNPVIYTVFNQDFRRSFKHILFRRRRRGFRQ
Procedure: B-1 In Vitro Radioligand Binding Studies for Determination of the Dissociation Constants K1 at the Human Adrenoreceptor ADRA2C (Eurofins Panlabs Discovery Services, Taiwan, Ltd)
A competition assay based on [^3H] rauwolscine as radioliganden was used to determine the binding affinity of the test substances at the human ADRA2C receptor.
To configure the competition assay, the equilibrium dissociation constant Kd of the radioligand [^3H] rauwolscine was determined in a saturation experiment. To this end, homogenates of CHO-K1 cells recombinantly expressing the human ADRA2C receptor were incubated with increasing concentrations of the radiotracers for 1 h at 4° C. in binding buffer (50 mM Tris-HCl, 1 mM EDTA, pH 7.4). Unspecific binding was determined by addition of an excess of the not radioactively labelled ligand prazosin (10 μM). The radioactivity was determined in a scintiation counter.
The competition experiments were carried out in the presence of 0.5 nM [^3H] rauwolscine and increasing concentrations of the test substances to be characterized under the conditions described above.
From the IC50 value measured in the competition experiment and the […] from the saturation experiment, the equilibrium constant Ki of the inhibitor, which describes the affinity of the test substances to the receptor, was calculated using the Cheng Prusoff equation [Cheng Y, Prusoff WH. Relationship between the inhibition constant (Ki) and the concentration of inhibitor which causes 50 percent inhibition (I50) of an enzymatic reaction. […] PMID 4202581 PMID: 4202581].

[2] = biological target: T1, human ADRA2C receptor; assay: In vitro activity assay to determine the inhibition of recombinant ADRA2C (CHO-K1 cells, aequorin bioluminescence); format: cell-based; settings: inhibition of noradrenaline-induced bioluminescence signal; some mean values from multiple determinations; read-out: ARα2C IC50
Outline: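 IC50 is the concentration halving the agonist (noradrenaline)-evoked rise in aequorin luminescence, fitted by 4-parameter Hill function. Read in stable Gαq/aequorin CHO-K1 cells expressing recombinant human ADRA2C.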

`COCC1CCCN(C2CCN(c3ncc(C(=O)NCc4ncc(F)cc4F)s3)CC2)C1` (single isomer, unassigned) [Example 100, ent-N-[(3,5-Difluoropyridin-2-yl)methyl]-2-[3-(methoxymethyl)[1,4′-bipiperidin]-1′-yl]-1,3-thiazole-5-carboxamide] gave an IC50 [1] of 5 nM, a Ki [1] of 2 nM and an IC50 [2] of 2.9 nM.

Work on `C[C@@H]1CCCN(C2CCN(c3ncc(C(=O)NCc4ncc(F)cc4F)s3)CC2)C1` [Example 1, N-[(3,5-Difluoropyridin-2-yl)methyl]-2-[(3R)-3-methyl[1,4′-bipiperidin]-1′-yl]-1,3-thiazole-5-carboxamide] yielded an IC50 [1] of 54 nM, a Ki [1] of 24 nM and an IC50 [2] of 121 nM.
